According to PubChem BioAssay AID1648 (Sanford-Burnham Center for Chemical Genomics, 2009):
The source made the active and inactive calls. How the calls were made is not given here.

Target: Serine/threonine-protein kinase mTOR (Homo sapiens) (UniProt P42345)
Experiment: binders of mTOR FRB domain, biophysical, NMR (AID 1648)
Settings: NMR binding to FRB domain, chemical shift

Sequence of Serine/threonine-protein kinase mTOR (Homo sapiens) (P42345 2015-2114): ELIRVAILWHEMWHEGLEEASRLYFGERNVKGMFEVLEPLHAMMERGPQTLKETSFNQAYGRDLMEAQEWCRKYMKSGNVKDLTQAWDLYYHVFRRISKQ

Structure (SMILES) | Kd
Cc1nnc(SCC(=O)N2CCc3ccccc32)s1 | > 4 mM (inactive)
CCOC(=O)C1=C(O)CCN(C)C1 | > 4 mM (inactive)
Nc1nnc(Cc2ccc(Cl)cc2)s1 | > 4 mM (inactive)
O=c1nc(C(F)(F)F)nc2ccccn12 | > 4 mM (inactive)
CC(C)(C)c1ccc(SCC(N)=O)cc1 | > 4 mM (inactive)
CCC(CO)NC(=O)c1snnc1C (centres undefined) | > 4 mM (inactive)
S=C1NC(=S)NC(c2ccc3c(c2)OCO3)N1 | > 4 mM (inactive)
O=c1sc2ccccc2n1CN1CCOCC1 | > 4 mM (inactive)
COc1ccccc1-c1c(C)nn2c(C)c(C(C)=O)cnc12 | > 4 mM (inactive)
Cc1ccccc1NC(=O)CC1SC(N)=NC1=O (centres undefined) | > 4 mM (inactive)
CN1CCC(O)N1C(=O)c1ccccc1O (centres undefined) | > 4 mM (inactive)
Nc1nnc(SCc2ccc(F)cc2)s1 | > 4 mM (inactive)
O=c1[nH]cc(NCc2ccco2)c(=O)[nH]1 | > 4 mM (inactive)
NC1C2CC3CC1CC(O)(C3)C2 (centres undefined) | > 4 mM (inactive)
O=C(NCCO)c1cc2ccccc2cc1O | > 4 mM (inactive)
Cn1cnc2c(=O)[nH]cc([N+](=O)[O-])c21 | > 4 mM (inactive)
O=C1CCC([N+](=O)[O-])C(c2ccccc2F)N1 (centres undefined) | > 4 mM (inactive)
O=S(=O)(Cc1ccccc1Cl)Nc1ccccn1 | > 4 mM (inactive)
CP(C)(=O)c1cccc(C(=O)O)c1 | > 4 mM (inactive)
CCOC(=O)C1CCN(Cc2ccccc2)CC1 | > 4 mM (inactive)
c1ccc(-c2csc(Nc3cccnc3)n2)nc1 | > 4 mM (inactive)
CC1CC2(NC(=O)NC2=O)C(C)CN1C (centres undefined) | > 4 mM (inactive)
CCc1ccc(C(=O)N2CCCC2)s1 | > 4 mM (inactive)

Structure (SMILES) | Kd
CNC(=S)N1CCN=C1Nc1nc(C)cc(C)n1 | > 4 mM (inactive)
O=C(Nc1cccnc1)c1cccs1 | > 4 mM (inactive)
COC(=O)Nc1nnc(-c2ccncc2)s1 | > 4 mM (inactive)
CCn1nccc1C(=O)Nc1ccc(Cl)cc1Cl | > 4 mM (inactive)
Cn1cccc1C=C1C(=O)NC(=S)NC1=O | > 4 mM (inactive)
Nc1ccc(N2CCOCC2)cc1 | > 4 mM (inactive)
Nc1ccc2ncsc2c1 | > 4 mM (inactive)
CN1CCC(N(C)Cc2cccnc2)CC1 | > 4 mM (inactive)
O=C1CS/C(=N/S(=O)(=O)c2ccccc2)N1 | > 4 mM (inactive)
Cc1csc2nc(N)nn12 | > 4 mM (inactive)
Cc1ccc2[nH]c3nc(=S)[nH]nc3c2c1 | > 4 mM (inactive)
O=C(Nc1ccccc1)NC1CCS(=O)(=O)C1 (centres undefined) | > 4 mM (inactive)
OC1CC(c2ccccc2)NC2(CCCC2)C1 (centres undefined) | > 4 mM (inactive)
COc1cc(/C=C/C(=O)O)cc(OC)c1OC | > 4 mM (inactive)
COc1cc2c(cc1OC)[C@@H]1C(=O)c3ccc(OC)c(CC=C(C)C)c3O[C@@H]1CO2 | > 4 mM (inactive)
O=C1CSC(=Nc2cccc(C(=O)O)c2)N1 | > 4 mM (inactive)
CC1C[C@H]2CC(=O)[C@H]3CCCN4CCC[C@H]2[C@]34C1 (some centres undefined) | > 4 mM (inactive)
Nc1nc2ncc(CNc3ccc(C(=O)N[C@@H](CCC(=O)O)C(=O)O)cc3)nc2c(=O)[nH]1 | > 4 mM (inactive)
CN1CCCn2c1nc1c2c(=O)[nH]c(=O)n1C | > 4 mM (inactive)
CC(=O)Nc1c(Cl)cnn(-c2ccccc2)c1=O | > 4 mM (inactive)
Oc1cccc(N2CCOCC2)c1 | > 4 mM (inactive)
O=C(O)CCc1ccc2c(c1)OCO2 | > 4 mM (inactive)
Nc1nc(SCc2ccc3c(c2)OCO3)n[nH]1 | > 4 mM (inactive)

Structure (SMILES) | Kd
Nc1ccccc1-n1cccn1 | > 4 mM (inactive)
Cc1cc(NC(=O)c2cnn3cccnc23)no1 | > 4 mM (inactive)
CCCn1c(C)cc(=O)[nH]c1=O | > 4 mM (inactive)
O=C(Nc1ccc2ccccc2c1)c1cnccn1 | > 4 mM (inactive)
Cn1c(=O)c2[nH]cnc2n(-c2ccccc2)c1=O | > 4 mM (inactive)
S=c1[nH]nc(-c2cccnc2)n1C1CCCCC1 | > 4 mM (inactive)
Cc1cc(NC(=O)Cc2c(F)cccc2Cl)no1 | > 4 mM (inactive)
Nc1ccc(C2SCCS2)cc1 | > 4 mM (inactive)
O=C(O)c1cccnc1N1CCOCC1 | > 4 mM (inactive)
CC(O)C(=O)N/N=C/c1ccccc1 (centres undefined) | > 4 mM (inactive)
c1ccc(-c2nc3ccccc3nc2-c2ccccn2)nc1 | > 4 mM (inactive)
C[C@]12CCC3C(CC[C@]4(O)C[C@@H](O)CC[C@]34C=O)[C@@]1(O)CCC2C1=CC(=O)OC1 (some centres undefined) | > 4 mM (inactive)
NC(=O)CC(=O)NC12CC3CC(CC(C3)C1)C2 | > 4 mM (inactive)
Cc1cc(C)nc(N(C#N)Cc2ccccc2)n1 | > 4 mM (inactive)
Cn1c(-c2ccccc2F)n[nH]c1=S | > 4 mM (inactive)
O=c1c(O)c(-c2ccccc2)oc2ccccc12 | > 4 mM (inactive)
O=C1C[C@@H](c2ccc(O)cc2)Oc2cc(O)cc(O)c21 | > 4 mM (inactive)
NS(=O)(=O)c1ccc(F)cc1 | > 4 mM (inactive)
Cc1ccc(-c2nc(N)n(C(=O)c3cccnc3)n2)cc1 | > 4 mM (inactive)
COc1ccc2c(=O)c(OC)c(-c3ccccc3)oc2c1 | > 4 mM (inactive)
C=C[C@@](C)(O)CCC1C(=C)C[C@H](OC(C)=O)C2C(C)(C)CCCC12C (some centres undefined) | > 4 mM (inactive)
CC(C)NC(=S)N1CCN(S(C)(=O)=O)CC1 | > 4 mM (inactive)
CCOC(=O)CC1Sc2ccccc2NC1=O (centres undefined) | > 4 mM (inactive)

Structure (SMILES) | Kd
CC(=O)OC1CC[C@@]2(C)C(CCC3C2CC[C@]2(C)C(C4=CC(=O)OC4)C(OC(C)=O)CC32O)C1 (some centres undefined) | > 4 mM (inactive)
Cn1c(CN2CC(c3ccccc3)CC2=O)n[nH]c1=S (centres undefined) | > 4 mM (inactive)
O=C(O)C1CSC(c2ccccc2)N1 (centres undefined) | > 4 mM (inactive)
O=C(O)CC1C(=O)NCCN1Cc1ccccc1 (centres undefined) | > 4 mM (inactive)
CN(C)C(=O)CSc1nc2ccccc2c(=O)[nH]1 | > 4 mM (inactive)
Cn1cnc2c(Cl)ncnc21 | > 4 mM (inactive)
Cc1ccccc1NC(=O)C1CC(=O)N=C(N)S1 (centres undefined) | > 4 mM (inactive)
O=C(Nc1ccc2c(c1)OCO2)c1cnn2cccnc12 | > 4 mM (inactive)
COc1cccc(C(=O)N2CCOCC2)c1 | > 4 mM (inactive)
c1coc(CNc2ncnc3nc[nH]c23)c1 | > 4 mM (inactive)
N#Cc1nc(-c2ccccc2Cl)oc1N1CCOCC1 | > 4 mM (inactive)
O=C1CN2C(=N1)N(Cc1ccccc1)c1ccccc12 | > 4 mM (inactive)
Cc1occc1C(=O)N1CCN(S(C)(=O)=O)CC1 | > 4 mM (inactive)
Clc1ccc(SCCn2cncn2)cc1 | > 4 mM (inactive)
OCc1cc2ccccc2o1 | > 4 mM (inactive)
Cc1ccc(SCc2cc(=O)n3[nH]cnc3n2)cc1 | > 4 mM (inactive)
O=C1NC(=O)C(Cc2ccccc2)C(=O)N1 | > 4 mM (inactive)
C=C(C)[C@H]1COc2cc3oc(=O)ccc3cc2O1 | > 4 mM (inactive)
COC(=O)C1CCN(c2ccc(Cl)nn2)CC1 | > 4 mM (inactive)
Cc1ccnc(NS(=O)(=O)c2cccs2)c1 | > 4 mM (inactive)
COc1ccc(-c2cc(=O)c3c(O)c(OC)c(O[C@H]4O[C@H](CO[C@@H]5O[C@@H](C)[C@H](O)[C@@H](O)[C@H]5O)[C@@H](O)[C@H](O)[C@H]4O)cc3o2)cc1 | > 4 mM (inactive)
O=C(NC(=S)NN1CCOCC1)c1cccs1 | > 4 mM (inactive)
Cc1ccc(/C=C/C(=O)O)cc1S(=O)(=O)NCCO | > 4 mM (inactive)

Structure (SMILES) | Kd
O=c1c(O)cc([C@H]2Oc3cc(O)cc(O)c3C[C@H]2O)cc2c([C@H]3Oc4cc(O)cc(O)c4C[C@H]3O)cc(O)c(O)c12 | > 4 mM (inactive)
NC(=O)c1c(Cl)nsc1-c1ccccc1Cl | > 4 mM (inactive)
C[N+](C)(C)CC(O)CC(=O)O (centres undefined) | > 4 mM (inactive)
O=C(O)c1cc(O)c2c(c1)C(=O)c1cc(O)cc(O)c1C2=O | > 4 mM (inactive)
COC(=O)C[C@@H]1C2(C)C(=O)[C@@H](CC3=C4C=C(OC)O[C@@H](c5ccoc5)[C@]4(C)CCC32)[C@H](O)C1(C)C (some centres undefined) | > 4 mM (inactive)
CCOC(=O)Cn1cnc2sc3c(c2c1=O)CCC3 | > 4 mM (inactive)
COc1cc(OC)c2c(OC)c(-c3ccc4c(c3)OCO4)c(=O)oc2c1 | > 4 mM (inactive)
COc1ccc(-c2coc3c(O)c(OC)ccc3c2=O)cc1 | > 4 mM (inactive)
CC(=O)Nc1ccc(NC(C)=O)cc1 | > 4 mM (inactive)
CC1=C(/C=C/C(C)=C/C=C/C(C)=C/C=C/C=C(C)/C=C/C=C(C)/C=C/C(=O)[C@]2(C)C[C@@H](O)CC2(C)C)C(C)(C)C[C@H](O)C1 | > 4 mM (inactive)
Oc1ccc(-c2n[nH]c(=S)n2Cc2ccco2)cc1 | > 4 mM (inactive)
CC(CC(=O)NN)C1(O)CCCCC1 (centres undefined) | > 4 mM (inactive)
Cc1ccc(C(=O)N2CCC(C(N)=O)CC2)c(Cl)c1 | > 4 mM (inactive)
OCCCc1nc2ccc(C(F)(F)F)cc2[nH]1 | > 4 mM (inactive)
O=C(O)c1cccc(N2C(=O)C3CC=CCC3C2=O)c1 (centres undefined) | > 4 mM (inactive)
COc1ccc(S(=O)(=O)Nc2ccccn2)c(C)c1C | > 4 mM (inactive)
Cc1cc(O)c2c(c1)C(=O)c1cccc(O)c1C2=O | > 4 mM (inactive)
CC1(C)N=C2C(=[N+]1[O-])CCC/C2=N\O | > 4 mM (inactive)
Cc1cc(OC(=O)c2c(C)cc(O)cc2O)cc(O)c1C(=O)O | > 4 mM (inactive)
Oc1ccccc1C(=S)N1CCCCCC1 | > 4 mM (inactive)
Cc1cccc(C)c1NC(=O)CN1CCOCC1 | > 4 mM (inactive)
COC(=O)C[C@H]1C2(C)CC34OC5(C)O[C@@]6([C@H](OC)C(OC(=O)C(C)C)[C@]7(C)C(/C(=C(/OC)C(C)C)C(=O)O[C@H]7c7ccoc7)[C@@]6(O5)[C@H](OC)[C@@]3(OC)C2OC(C)=O)[C@]14C (some centres undefined) | > 4 mM (inactive)
